Read-outs that look alike come from different tables or passages of the source.

This note sets out measurements from publication PMC8880564, “Design, Synthesis, and Biological Evaluation of a Novel VEGFR-2 Inhibitor Based on a 1,2,5-Oxadiazole-2-Oxide Scaffold with MAPK Signaling Pathway Inhibition” (Pharmaceuticals, 2022).

What all share (format): cell-based
One assay deals with HCT-116. Nature of the assay: NCI-60 one-dose SRB screening. The following applies: Homo sapiens, HCT-116, Colon Cancer, 10 µM one dose, 48 h, read-out: growth percentage. The procedure: (§1) The structures of the synthesized compounds 6a–h, 12a–c, 11, 13a–c, and 14a–c were submitted to the National Cancer Institute’s Developmental Therapeutics Program (NCI-DTP), and all of them were selected for preliminary in vitro anticancer activity screening against NCI-59 human cancer cell lines at a concentration of 10 µM, using the sulforhodamine B (SRB) assay to determine the growth percentage and cell viability.
(§2) The in vitro NCI-60 cell line screening assay was conducted at the National Cancer Institute (NCI), Bethesda, USA against 59 cancer cell lines representing 9 types of cancers, as reported earlier. Briefly, the human cancer cell lines were grown in RPMI 1640 medium containing 5% fetal bovine serum and 2 mM L-glutamine and inoculated into 96-well microtiter plates in 100 μL (5000 to 40,000 cells/well). Then, the plates were incubated at 37 °C, 5% CO2, 95% air, and 100% relative humidity for 24 h. After that, two plates of each cell line were fixed in situ with TCA, to represent cell population at time zero (Tz). The tested compounds were dissolved in DMSO at 400-fold and added so that the final concentration became 10 μM. The plates were then incubated for an additional 48 h followed by the addition of cold TCA to terminate the assay in case of adherent cells. Then, the cells were fixed in situ by cold 50% (w/v) TCA (50 μL; final concentration, 10% TCA) and incubated for 1 h at 4 °C. After discarding the supernatant, the plates were washed 5 times with tap water and air dried. Sulforhodamine B (SRB) solution (100 μL) at 0.4% (w/v) in 1% HOAc was added to each well, and plates were incubated for 10 min. at rt. Then, washing with 1% acetic acid was conducted 5 times to remove the unbound dye followed by air drying. After that, 10 mM trizma base was added to solubilize the bound stain, and the absorbance was read on an automated plate reader at a wavelength of 515 nm. On the other hand, the methodology for suspension cells was the same except that 50 μL of 80% TCA (final concentration, 16% TCA) was gently added to terminate the assay by fixing settled cells at the bottom of the wells. Percentage growth inhibition (GI%) was calculated as follows:
(§3) Growth percentage=Ti (test growth in the presence of compound at 10 µM )−Tz (time zero)/C (control growth)−Tz (time zero)×100 for Ti ≥ Tz;
(§4) Growth percentage=Ti (test growth in the presence of compound at 10 µM )−Tz (time zero)/Tz (time zero)×100 for Ti < Tz.
(§5) where values of 100, 40, 0, −40, and −100 mean no GI, 60% GI, no net G, 40% lethality, and all cells are dead, respectively.

Another assay has as its system HOP-92. Nature of the assay: NCI-60 one-dose SRB screening. The following applies: Homo sapiens, HOP-92, Non-Small Cell Lung Cancer, 10 µM one dose, 48 h, read-out: growth percentage. The procedure:
as §1, §2, §3, §4, §5

The next assay concerns RPMI-8226. Nature of the assay: NCI-60 one-dose SRB screening. To be noted: Homo sapiens, RPMI-8226, Leukemia, 10 µM one dose, 48 h, read-out: growth percentage. How it is done: as §1, §2, §3, §4, §5
A further assay relates to NCI-H460. The assay is described as follows: NCI-60 one-dose SRB screening. The following applies: Homo sapiens, NCI-H460, Non-Small Cell Lung Cancer, 10 µM one dose, 48 h, read-out: growth percentage. How it is done: as §1, §2, §3, §4, §5
The subject of another assay is HS 578T. Nature of the assay: NCI-60 one-dose SRB screening. The following applies: Homo sapiens, Breast Cancer, 10 µM one dose, 48 h, read-out: growth percentage. The procedure: as §1, §2, §3, §4, §5
The next assay relates to U251. The assay is described as follows: NCI-60 one-dose SRB screening. To be noted: Homo sapiens, U-251, U251, CNS Cancer, 10 µM one dose, 48 h, read-out: growth percentage. How it is done:
as §1, §2, §3, §4, §5

In another assay the test system is HT29. Nature of the assay: NCI-60 one-dose SRB screening. The following applies: Homo sapiens, HT-29, HT29, Colon Cancer, 10 µM one dose, 48 h, read-out: growth percentage. How it is done: as §1, §2, §3, §4, §5
In the next assay the test system is CAKI-1. Nature of the assay: NCI-60 one-dose SRB screening. The following applies: Homo sapiens, CAKI-1, Renal Cancer, 10 µM one dose, 48 h, read-out: growth percentage. How it is done:
as §1, §2, §3, §4, §5

Another assay concerns NCI/ADR-RES. The assay is described as follows: NCI-60 one-dose SRB screening. To be noted: Homo sapiens, Ovarian Cancer, 10 µM one dose, 48 h, read-out: growth percentage. The procedure: as §1, §2, §3, §4, §5
Another assay relates to HOP-62. Nature of the assay: NCI-60 one-dose SRB screening. To be noted: Homo sapiens, HOP-62, Non-Small Cell Lung Cancer, 10 µM one dose, 48 h, read-out: growth percentage. The procedure: as §1, §2, §3, §4, §5
In a further assay the test system is NCI-H322M. Nature of the assay: NCI-60 one-dose SRB screening. The following applies: Homo sapiens, Non-Small Cell Lung Cancer, 10 µM one dose, 48 h, read-out: growth percentage. How it is done:
as §1, §2, §3, §4, §5

In the next assay the test system is OVCAR-8. Nature of the assay: NCI-60 one-dose SRB screening. The following applies: Homo sapiens, OVCAR-8, Ovarian Cancer, 10 µM one dose, 48 h, read-out: growth percentage. The procedure: as §1, §2, §3, §4, §5
Another assay has as its system SNB-19. The assay is described as follows: NCI-60 one-dose SRB screening. To be noted: Homo sapiens, SNB-19, CNS Cancer, 10 µM one dose, 48 h, read-out: growth percentage. The procedure: as §1, §2, §3, §4, §5
The subject of a further assay is A549/ATCC. Nature of the assay: NCI-60 one-dose SRB screening. To be noted: Homo sapiens, Non-Small Cell Lung Cancer, 10 µM one dose, 48 h, read-out: growth percentage. The procedure: as §1, §2, §3, §4, §5
The subject of the next assay is SN12C. Nature of the assay: NCI-60 one-dose SRB screening. To be noted: Homo sapiens, Renal Cancer, 10 µM one dose, 48 h, read-out: growth percentage. The procedure:
as §1, §2, §3, §4, §5

For the next assay, the system named is SK-MEL-2. The assay is described as follows: NCI-60 one-dose SRB screening. To be noted: Homo sapiens, SK-MEL-2, Melanoma, 10 µM one dose, 48 h, read-out: growth percentage. How it is done: as §1, §2, §3, §4, §5
The next assay deals with MCF7. Nature of the assay: NCI-60 one-dose SRB screening. To be noted: Homo sapiens, MCF7, Breast Cancer, 10 µM one dose, 48 h, read-out: growth percentage. The procedure: as §1, §2, §3, §4, §5
The next assay deals with SF-539. Nature of the assay: NCI-60 one-dose SRB screening. To be noted: Homo sapiens, SF-539, CNS Cancer, 10 µM one dose, 48 h, read-out: growth percentage. How it is done: as §1, §2, §3, §4, §5
Another assay has as its system UACC-257. The assay is described as follows: NCI-60 one-dose SRB screening. The following applies: Homo sapiens, UACC-257, Melanoma, 10 µM one dose, 48 h, read-out: growth percentage. The procedure: as §1, §2, §3, §4, §5
A further assay has as its system SK-MEL-28. The assay is described as follows: NCI-60 one-dose SRB screening. To be noted: Homo sapiens, SK-MEL-28, Melanoma, 10 µM one dose, 48 h, read-out: growth percentage. How it is done: as §1, §2, §3, §4, §5
Assay [1] relates to NCI-59 human cancer cell lines. The assay is described as follows: NCI-60 one-dose SRB screening, full panel and subpanels. To be noted: for activity at 10 µM / inhibition at 10 µM: Homo sapiens; for activity at 10 µM: mean over the full panel, 10 µM one dose, 48 h, SRB, read-out: growth percentage, Mean; for inhibition at 10 µM: read-out: growth-inhibitory % activity, up to; for enhancement of the growth percentage (mean): full NCI-59 panel; for inhibition at 10 µM / enhancement of the growth percentage (mean): 10 µM. The procedure: as §1, §2, §3, §4, §5
Data are expressed as a one-dose mean graph of growth percentages including the mean, delta, and range.

As to `O=c1[nH]c(CCl)nc2c1cnn2-c1ccccc1` [13a], the activity at 10 µM with HCT-116 was 94.9%; in the assay with HOP-92, 101%; with RPMI-8226, 82.5%; in the assay with NCI-H460, 101%; in the assay on HS 578T, 111%; in the assay on U251 it was 93.7%. Moreover, the activity at 10 µM with HT29 was found to be 115%; in the assay on CAKI-1, 97.6%; in the assay with NCI/ADR-RES, 104%; in the assay on HOP-62, 125%; in the assay with NCI-H322M, 101%; in the assay on OVCAR-8 it was 114%. In addition, the activity at 10 µM is 96.3% with SNB-19; 98.5% in the assay on A549/ATCC; 99.8% with SN12C; 104% in the assay with SK-MEL-2; 79.5% in the assay on MCF7; 97.1% with SF-539. Also, the activity at 10 µM with UACC-257 was 99%; in the assay on SK-MEL-28, -89.8%; in assay [1], 94.2%.
For the compound `[O-][n+]1onc(-c2ccccc2)c1CNc1ccc(Nc2nc(C(F)(F)F)nc3c2cnn3-c2ccc(Br)cc2)cc1` [12b, 3-(((4-((1-(4-bromophenyl)-6-(trifluoromethyl)-1H-pyrazolo[3,4-d]pyrimidin-4-yl)amino)phenyl)amino)methyl)-4-phenyl-1,2,5-oxadiazole 2-oxide], the activity at 10 µM stood at 46.7% with HCT-116; 68.4% with HOP-92; 73.8% in the assay on RPMI-8226; 35.6% in the assay on NCI-H460; 77.6% in the assay with HS 578T; 73.2% in the assay with U251. Also, the activity at 10 µM in the assay with HT29 amounted to 43.9%; with CAKI-1, 31.1%; in the assay on NCI/ADR-RES it was 66.4%; with HOP-62, 77.9%; with NCI-H322M it was 74.1%; in the assay on OVCAR-8, 72.8%. In addition, the activity at 10 µM with SNB-19 was determined as 78.9%; with A549/ATCC, 64.4%; in the assay on SN12C, 58%; in the assay on SK-MEL-2 it was 99.8%; in the assay with MCF7, 38.8%; in the assay on SF-539 it was 68.3%. Moreover, the activity at 10 µM in the assay with UACC-257 was 102%; with SK-MEL-28 it was 89.2%; in assay [1], 66.8%. Also, the inhibition at 10 µM in assay [1] (CNS cancer cell lines) was at most 45%; in assay [1] (breast cancer cells), at most 61%; in assay [1] (colon cancer cell lines), at most 62%; in assay [1] (leukemia cell lines), at most 77%; in assay [1] (melanoma cell lines), at most 72%; in assay [1] (non-small cell lung cancer cell lines) it was at most 64%. Further, the inhibition at 10 µM in [1] (ovarian cancer cell lines) is at most 40%; in assay [1] (prostate cancer cell lines) it was at most 52%; in [1] (renal cancer cell lines) it was at most 69%.
Take `[O-][n+]1onc(-c2ccccc2)c1COc1ccc(Nc2ncnc3c2cnn3-c2ccc(Br)cc2)cc1` [6e, 3-((4-((1-(4-bromophenyl)-1H-pyrazolo[3,4-d]pyrimidin-4-yl)amino)phenoxy)methyl)-4-phenyl-1,2,5-oxadiazole 2-oxide]: the activity at 10 µM in the assay on HCT-116 was found to be 92.7%; with HOP-92, 109%; in the assay with RPMI-8226, 111%; with NCI-H460, 111%; in the assay with HS 578T it was 110%; in the assay on U251 it was 102%. Moreover, the activity at 10 µM was found to be 94.5% with HT29; 82.1% in the assay on CAKI-1; 107% in the assay with NCI/ADR-RES; 105% in the assay with HOP-62; 97.9% in the assay on NCI-H322M; 105% in the assay on OVCAR-8. Besides, the activity at 10 µM came out at 103% in the assay on SNB-19; 93.5% in the assay with A549/ATCC; 96.4% with SN12C; 99.2% with SK-MEL-2; 87.9% with MCF7; 98.4% in the assay on SF-539. The activity at 10 µM was 104% with UACC-257, 99.3% in the assay with SK-MEL-28 and 101% in assay [1]. The “enhancement of the growth percentage (mean)” value in assay [1] is listed as 1–5%.
As to `Cc1nc(Nc2ccc(OCc3c(-c4ccccc4)no[n+]3[O-])cc2)c2c(C)nn(-c3ccccc3)c2n1` [6d, 3-((4-((3,6-dimethyl-1-phenyl-1H-pyrazolo[3,4-d]pyrimidin-4-yl)amino)phenoxy)methyl)-4-phenyl-1,2,5-oxadiazole 2-oxide], the activity at 10 µM was found to be 104% in the assay on HCT-116; 104% in the assay on HOP-92; 106% in the assay with RPMI-8226; 112% in the assay with NCI-H460; 102% in the assay on HS 578T; 106% with U251. Besides, the activity at 10 µM turned out to be 119% in the assay on HT29; 101% with CAKI-1; 102% with NCI/ADR-RES; 107% in the assay with HOP-62; 99.9% in the assay on NCI-H322M; 107% with OVCAR-8. Further, the activity at 10 µM in the assay on SNB-19 was 99.6%; in the assay with A549/ATCC, 103%; in the assay on SN12C, 98.4%; in the assay on SK-MEL-2, 121%; in the assay with MCF7, 95.4%; with SF-539, 99.8%. Moreover, the activity at 10 µM in the assay with UACC-257 stood at 109%; in the assay with SK-MEL-28 it was 102%; in assay [1] it was 105%. Besides, in [1], the “enhancement of the growth percentage (mean)” value is 1–5%.
